Laboratory results published in paper PMC10343355, “Finding the Right Solvent: A Novel Screening Protocol for Identifying Environmentally Friendly and Cost-Effective Options for Benzenesulfonamide” (Molecules, 2023).

Test: Shake-flask solubility of BSA in neat solvents and aqueous binary mixtures, spectrophotometric determination at 264 nm
Assay type: physicochemical
Settings: for log(x1)exp: mole fraction solubility
Procedure: In order to determine the solubility of BSA in the studied solvents, excess amounts of it were added to test tubes pre-filled with a particular solvent or a binary mixture of this solvent and water in different molar proportions. Saturated solutions prepared in this manner were placed in an ES-20/60 Orbital Shaker Incubator from Biosan (Riga, Latvia) and incubated for 24 h at different temperatures. Four temperatures were used in the range from 25 °C to 40 °C with 5 °C intervals. The temperature in the incubator was adjusted with 0.1-degree accuracy with a 0.5-degree variance in a 24 h cycle. Simultaneously, the samples were mixed at 60 rev/min. In the next stage, the filtration of the samples took place, utilizing syringes equipped with PTFE filters with 0.22 µm pore size. Since the temperature difference between the measured solutions and used instruments can possibly lead to precipitation, all of the used test tubes, pipette tips, syringes, and filters were initially heated. This was carried out by placing them in the same incubator as the samples and heating them at exactly the same temperature prior to the handling of the samples. This was particularly important in the case of elevated temperatures, as the difference between, e.g., 40 °C and room temperature is quite extensive. Then, small amounts of the obtained filtrate were diluted in different test tubes containing methanol and measured spectrophotometrically. In order to determine the mole fractions of BSA in the samples, their density was also measured by weighing a 1 mL volume of each of the solutions, taken by using an Eppendorf Reference 2 pipette (Hamburg, Germany), in 10 mL volumetric flasks. The systematic error of the pipette was 6 μL. The precision of the RADWAG (Radom, Poland) AS 110.R2 PLUS analytical balance that was used in this study was 0.1 mg. The A360 spectrophotometer from AOE Instruments (Shanghai, China) was used for solubility determination. The spectra were recorded in the 190 nm to 400 nm wavelength range with a 1 nm resolution. Methanol was used for both the dilution of the samples and the initial calibration of the spectrophotometer. The analytical wavelength was determined to be 264 nm, and the absorbance of the samples at this wavelength was used for the determination of the BSA concentration in the samples and the subsequent calculation of its mole fractions. Three separate measurements were used, and the resulting values were averaged. The calibration curve for BSA was generated by preparing successive dilutions of an initial stock solution and performing spectrophotometric measurements of the resulting solutions with decreasing concentrations. The molar concentrations of measured solutions were 3.19 × 10^−3, 2.84 × 10^−3, 2.46 × 10^−3, 2.13 × 10^−3, 1.88 × 10^−3, 1.60 × 10^−3, 1.26 × 10^−3, 9.53 × 10^−4, 5.70 × 10^−4, and 4.80 × 10^−4 M). The relationship between the absorbance values at 264 nm and the solution concentration was described by the linear equation A = 470.86 × C + 0.0093 (A—absorbance; C—molar concentration), with a determination coefficient R^2 equal 0.9996, denoting high linearity.

NS(=O)(=O)c1ccccc1 [BSA, Benzenesulfonamide]
solubility, X^exp × 10^3 (4FM+water, x2*(4FM)=0.2, 298.15 K): 23.42 ± 0.86 mole fraction × 10^3
solubility, X^exp × 10^3 (4FM+water, x2*(4FM)=0.2, 303.15 K): 32.61 ± 1.65 mole fraction × 10^3
solubility, X^exp × 10^3 (4FM+water, x2*(4FM)=0.2, 308.15 K): 48.14 ± 1.59 mole fraction × 10^3
solubility, X^exp × 10^3 (4FM+water, x2*(4FM)=0.2, 313.15 K): 69.19 ± 2.56 mole fraction × 10^3
solubility, X^exp × 10^3 (4FM+water, x2*(4FM)=0.4, 298.15 K): 45.67 ± 0.33 mole fraction × 10^3
solubility, X^exp × 10^3 (4FM+water, x2*(4FM)=0.4, 303.15 K): 68.93 ± 1.12 mole fraction × 10^3
solubility, X^exp × 10^3 (4FM+water, x2*(4FM)=0.4, 308.15 K): 102.78 ± 3.56 mole fraction × 10^3
solubility, X^exp × 10^3 (4FM+water, x2*(4FM)=0.4, 313.15 K): 142.57 ± 6.01 mole fraction × 10^3
solubility, X^exp × 10^3 (4FM+water, x2*(4FM)=0.6, 298.15 K): 61.48 ± 0.85 mole fraction × 10^3
solubility, X^exp × 10^3 (4FM+water, x2*(4FM)=0.6, 303.15 K): 101.16 ± 0.91 mole fraction × 10^3
solubility, X^exp × 10^3 (4FM+water, x2*(4FM)=0.6, 308.15 K): 146.31 ± 6.19 mole fraction × 10^3
solubility, X^exp × 10^3 (4FM+water, x2*(4FM)=0.6, 313.15 K): 196.38 ± 7.85 mole fraction × 10^3
solubility, X^exp × 10^3 (4FM+water, x2*(4FM)=0.8, 298.15 K): 68.53 ± 0.63 mole fraction × 10^3
solubility, X^exp × 10^3 (4FM+water, x2*(4FM)=0.8, 303.15 K): 118.09 ± 6.45 mole fraction × 10^3
solubility, X^exp × 10^3 (4FM+water, x2*(4FM)=0.8, 308.15 K): 178.71 ± 6.67 mole fraction × 10^3
solubility, X^exp × 10^3 (4FM+water, x2*(4FM)=0.8, 313.15 K): 242.26 ± 2.09 mole fraction × 10^3
solubility, X^exp × 10^3 (DMF+water, x2*(DMF)=0.2, 298.15 K): 42.18 ± 0.83 mole fraction × 10^3
solubility, X^exp × 10^3 (DMF+water, x2*(DMF)=0.2, 303.15 K): 46.69 ± 1.75 mole fraction × 10^3
solubility, X^exp × 10^3 (DMF+water, x2*(DMF)=0.2, 308.15 K): 54.78 ± 1.76 mole fraction × 10^3
solubility, X^exp × 10^3 (DMF+water, x2*(DMF)=0.2, 313.15 K): 63.21 ± 1.40 mole fraction × 10^3
solubility, X^exp × 10^3 (DMF+water, x2*(DMF)=0.4, 298.15 K): 161.16 ± 3.97 mole fraction × 10^3
solubility, X^exp × 10^3 (DMF+water, x2*(DMF)=0.4, 303.15 K): 179.12 ± 10.87 mole fraction × 10^3
solubility, X^exp × 10^3 (DMF+water, x2*(DMF)=0.4, 308.15 K): 202.07 ± 2.93 mole fraction × 10^3
solubility, X^exp × 10^3 (DMF+water, x2*(DMF)=0.4, 313.15 K): 233.72 ± 14.10 mole fraction × 10^3
solubility, X^exp × 10^3 (DMF+water, x2*(DMF)=0.6, 298.15 K): 231.63 ± 6.50 mole fraction × 10^3
solubility, X^exp × 10^3 (DMF+water, x2*(DMF)=0.6, 303.15 K): 253.07 ± 9.75 mole fraction × 10^3
solubility, X^exp × 10^3 (DMF+water, x2*(DMF)=0.6, 308.15 K): 281.23 ± 1.05 mole fraction × 10^3
solubility, X^exp × 10^3 (DMF+water, x2*(DMF)=0.6, 313.15 K): 319.28 ± 11.90 mole fraction × 10^3
solubility, X^exp × 10^3 (DMF+water, x2*(DMF)=0.8, 298.15 K): 268.17 ± 4.27 mole fraction × 10^3
solubility, X^exp × 10^3 (DMF+water, x2*(DMF)=0.8, 303.15 K): 286.69 ± 8.71 mole fraction × 10^3
solubility, X^exp × 10^3 (DMF+water, x2*(DMF)=0.8, 308.15 K): 317.90 ± 8.49 mole fraction × 10^3
solubility, X^exp × 10^3 (DMF+water, x2*(DMF)=0.8, 313.15 K): 356.68 ± 8.53 mole fraction × 10^3
solubility, X^exp × 10^3 (DMSO+water, x2*(DMSO)=0.2, 298.15 K): 35.84 ± 1.56 mole fraction × 10^3
solubility, X^exp × 10^3 (DMSO+water, x2*(DMSO)=0.2, 303.15 K): 40.39 ± 0.41 mole fraction × 10^3
solubility, X^exp × 10^3 (DMSO+water, x2*(DMSO)=0.2, 308.15 K): 45.37 ± 0.84 mole fraction × 10^3
solubility, X^exp × 10^3 (DMSO+water, x2*(DMSO)=0.2, 313.15 K): 50.66 ± 1.03 mole fraction × 10^3
solubility, X^exp × 10^3 (DMSO+water, x2*(DMSO)=0.4, 298.15 K): 136.28 ± 5.21 mole fraction × 10^3
solubility, X^exp × 10^3 (DMSO+water, x2*(DMSO)=0.4, 303.15 K): 153.75 ± 0.89 mole fraction × 10^3
solubility, X^exp × 10^3 (DMSO+water, x2*(DMSO)=0.4, 308.15 K): 175.06 ± 5.16 mole fraction × 10^3
solubility, X^exp × 10^3 (DMSO+water, x2*(DMSO)=0.4, 313.15 K): 198.55 ± 12.9 mole fraction × 10^3
solubility, X^exp × 10^3 (DMSO+water, x2*(DMSO)=0.6, 298.15 K): 257.01 ± 5.42 mole fraction × 10^3
solubility, X^exp × 10^3 (DMSO+water, x2*(DMSO)=0.6, 303.15 K): 279.84 ± 7.39 mole fraction × 10^3
solubility, X^exp × 10^3 (DMSO+water, x2*(DMSO)=0.6, 308.15 K): 307.25 ± 8.78 mole fraction × 10^3
solubility, X^exp × 10^3 (DMSO+water, x2*(DMSO)=0.6, 313.15 K): 335.53 ± 2.01 mole fraction × 10^3
solubility, X^exp × 10^3 (DMSO+water, x2*(DMSO)=0.8, 298.15 K): 301.83 ± 4.01 mole fraction × 10^3
solubility, X^exp × 10^3 (DMSO+water, x2*(DMSO)=0.8, 303.15 K): 324.42 ± 10.85 mole fraction × 10^3
solubility, X^exp × 10^3 (DMSO+water, x2*(DMSO)=0.8, 308.15 K): 352.69 ± 7.04 mole fraction × 10^3
solubility, X^exp × 10^3 (DMSO+water, x2*(DMSO)=0.8, 313.15 K): 381.96 ± 8.16 mole fraction × 10^3
solubility, X^exp × 10^3 (DMSO+water, x2*=0.0 (neat water), 298.15 K): 0.56 ± 0.03 mole fraction × 10^3
solubility, X^exp × 10^3 (DMSO+water, x2*=0.0 (neat water), 303.15 K): 0.83 ± 0.01 mole fraction × 10^3
solubility, X^exp × 10^3 (DMSO+water, x2*=0.0 (neat water), 308.15 K): 1.17 ± 0.04 mole fraction × 10^3
solubility, X^exp × 10^3 (DMSO+water, x2*=0.0 (neat water), 313.15 K): 1.53 ± 0.03 mole fraction × 10^3
log(x1)exp (solvent 4-Formylmorpholine, T 25.00 °C): -1.16
log(x1)exp (solvent 4-Formylmorpholine, T 30.00 °C): -0.88
log(x1)exp (solvent 4-Formylmorpholine, T 35.00 °C): -0.70
log(x1)exp (solvent 4-Formylmorpholine, T 40.00 °C): -0.55
log(x1)exp (solvent DMF, T 25.00 °C): -0.54
log(x1)exp (solvent DMF, T 30.00 °C): -0.51
log(x1)exp (solvent DMF, T 35.00 °C): -0.47
log(x1)exp (solvent DMF, T 40.00 °C): -0.42
log(x1)exp (solvent DMSO, T 25.00 °C): -0.50
log(x1)exp (solvent DMSO, T 30.00 °C): -0.47
log(x1)exp (solvent DMSO, T 35.00 °C): -0.43
log(x1)exp (solvent DMSO, T 40.00 °C): -0.40
log(x1)exp (solvent water, T 25.00 °C): -3.25
log(x1)exp (solvent water, T 30.00 °C): -3.08
log(x1)exp (solvent water, T 35.00 °C): -2.93
log(x1)exp (solvent water, T 40.00 °C): -2.82
solubility, X^exp × 10^3 (x2*=1.0 (neat 4FM), 298.15 K): 69.45 ± 0.49 mole fraction × 10^3
solubility, X^exp × 10^3 (x2*=1.0 (neat 4FM), 303.15 K): 132.21 ± 4.61 mole fraction × 10^3
solubility, X^exp × 10^3 (x2*=1.0 (neat 4FM), 308.15 K): 200.82 ± 7.43 mole fraction × 10^3
solubility, X^exp × 10^3 (x2*=1.0 (neat 4FM), 313.15 K): 279.66 ± 2.42 mole fraction × 10^3
solubility, X^exp × 10^3 (x2*=1.0 (neat DMF), 298.15 K): 288.65 ± 1.99 mole fraction × 10^3
solubility, X^exp × 10^3 (x2*=1.0 (neat DMF), 303.15 K): 308.50 ± 5.81 mole fraction × 10^3
solubility, X^exp × 10^3 (x2*=1.0 (neat DMF), 308.15 K): 336.89 ± 13.52 mole fraction × 10^3
solubility, X^exp × 10^3 (x2*=1.0 (neat DMF), 313.15 K): 378.60 ± 8.94 mole fraction × 10^3
solubility, X^exp × 10^3 (x2*=1.0 (neat DMSO), 298.15 K): 319.77 ± 2.83 mole fraction × 10^3
solubility, X^exp × 10^3 (x2*=1.0 (neat DMSO), 303.15 K): 342.67 ± 5.19 mole fraction × 10^3
solubility, X^exp × 10^3 (x2*=1.0 (neat DMSO), 308.15 K): 369.38 ± 9.57 mole fraction × 10^3
solubility, X^exp × 10^3 (x2*=1.0 (neat DMSO), 313.15 K): 402.31 ± 9.04 mole fraction × 10^3
